Test results published in patent US20260262643A1, “HERBICIDAL BENZOXAZINES” (FMC CORPORATION, priority 2022, published 2026).

Columns and labels:
pigweed, palmer [1] = assay: Test C preemergence; assay type: in vivo, Amaranthus palmeri; settings: 0 to 100 scale (0 no effect, 100 complete control); for Plant response rating, Pigweed, Palmer: Preemergence, 500 g ai/ha, visual rating after 10 days; for Pigweed, Palmer plant response rating: Test C, preemergence, 125 g ai/ha
Outline: (§1)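 Seeds in loam–sand blend received preemergence directed soil spray of test chemicals in non-phytotoxic solvent with surfactant; postemergence treatment was applied at one- to two-leaf stage (2–10 cm). After 10 days in greenhouse, injury rated visually versus untreated controls, 0 (no effect) to 100 (complete control).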

barnyardgrass [2] = assay: Test C preemergence; assay type: in vivo, Echinochloa crusgalli; settings: 0 to 100 scale (0 no effect, 100 complete control); for Plant response rating, Barnyardgrass: Preemergence, 500 g ai/ha, visual rating after 10 days; for Barnyardgrass plant response rating: Test C, preemergence, 125 g ai/ha
Outline: as §1

rice = assay: Test D flooded paddy test; assay type: in vivo, Oryza sativa; settings: 250 g ai/ha, applied to paddy water, visual rating after 13 to 14 days, scale 0 to 100 (0 no effect, 100 complete control)
Outline: (§2)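 Plants grown to the 2-leaf stage; pots flooded to 3 cm above soil at treatment and held at that depth throughout. Test compounds applied directly to the paddy water. After 13 to 14 days in a greenhouse, response was rated visually versus controls on a 0 (no effect) to 100 (complete control) scale.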

oat, wild [3] = assay: Test C postemergence; assay type: in vivo, Avena fatua; settings: 10 days
Outline: as §1

wheat [4] = assay: Test C preemergence; assay type: in vivo, Triticum aestivum; settings: 0 to 100 scale (0 no effect, 100 complete control); for Plant response rating, Wheat: Preemergence, 500 g ai/ha, visual rating after 10 days; for Wheat plant response rating: Test C, preemergence, 125 g ai/ha
Outline: as §1

galium = assay: Test C postemergence; assay type: in vivo, Galium aparine; settings: 10 days
Outline: as §1

pigweed, palmer [5] = assay: Test C postemergence; assay type: in vivo, Amaranthus palmeri; settings: 10 days
Outline: as §1

green foxtail [6] = assay: Test C preemergence; assay type: in vivo, Setaria viridis; settings: 0 to 100 scale (0 no effect, 100 complete control); for Plant response rating, Foxtail, Green: Preemergence, 500 g ai/ha, visual rating after 10 days; for Foxtail, Green plant response rating: Test C, preemergence, 125 g ai/ha
Outline: as §1

blackgrass [7] = assay: Test C preemergence; assay type: in vivo, Alopecurus myosuroides; settings: 0 to 100 scale (0 no effect, 100 complete control); for Plant response rating, Blackgrass: Preemergence, 500 g ai/ha, visual rating after 10 days; for Blackgrass plant response rating: Test C, preemergence, 125 g ai/ha
Outline: as §1

soybean [8] = assay: Test C preemergence; assay type: in vivo, Glycine max; settings: 0 to 100 scale (0 no effect, 100 complete control); for Plant response rating, Soybean: Preemergence, 500 g ai/ha, visual rating after 10 days; for Soybean plant response rating: Test C, preemergence, 125 g ai/ha
Outline: as §1

soybean [9] = assay: Test C postemergence; assay type: in vivo, Glycine max; settings: 10 days
Outline: as §1

blackgrass [10] = assay: Test C postemergence; assay type: in vivo, Alopecurus myosuroides; settings: 10 days
Outline: as §1

barnyardgrass [11] = assay: Test D flooded paddy test; assay type: in vivo, Echinochloa crus-galli; settings: 250 g ai/ha, applied to paddy water, visual rating after 13 to 14 days, scale 0 to 100 (0 no effect, 100 complete control)
Outline: as §2

sedge, umbrella = assay: Test D flooded paddy test; assay type: in vivo, Cyperus difformis; settings: 250 g ai/ha, applied to paddy water, visual rating after 13 to 14 days, scale 0 to 100 (0 no effect, 100 complete control)
Outline: as §2

oat, wild [12] = assay: Test C preemergence; assay type: in vivo, Avena fatua; settings: 0 to 100 scale (0 no effect, 100 complete control); for Plant response rating, Oat, Wild: Preemergence, 500 g ai/ha, visual rating after 10 days; for Oat, Wild plant response rating: Test C, preemergence, 125 g ai/ha
Outline: as §1

green foxtail [13] = assay: Test C postemergence; assay type: in vivo, Setaria viridis; settings: 10 days
Outline: as §1

kochia [14] = assay: Test C postemergence; assay type: in vivo, Bassia scoparia; settings: 10 days
Outline: as §1

kochia [15] = assay: Test C preemergence; assay type: in vivo, Bassia scoparia; settings: 0 to 100 scale (0 no effect, 100 complete control); for Plant response rating, Kochia: Preemergence, 500 g ai/ha, visual rating after 10 days
Outline: as §1

horseweed = assay: Test C postemergence; assay type: in vivo, Erigeron canadensis; settings: 10 days
Outline: as §1

ragweed [16] = assay: Test C postemergence; assay type: in vivo, Ambrosia artemisiifolia; settings: 10 days
Outline: as §1

ryegrass, Italian [17] = assay: Test C preemergence; assay type: in vivo, Lolium multiflorum; settings: 0 to 100 scale (0 no effect, 100 complete control); for Plant response rating, Ryegrass, Italian: Preemergence, 500 g ai/ha, visual rating after 10 days; for Ryegrass, Italian plant response rating: Test C, preemergence, 125 g ai/ha
Outline: as §1

corn [18] = assay: Test C preemergence; assay type: in vivo, Zea mays; settings: 0 to 100 scale (0 no effect, 100 complete control); for Plant response rating, Corn: Preemergence, 500 g ai/ha, visual rating after 10 days; for Corn plant response rating: Test C, preemergence, 125 g ai/ha
Outline: as §1

ducksalad = assay: Test D flooded paddy test; assay type: in vivo, Heteranthera limosa; settings: 250 g ai/ha, applied to paddy water, visual rating after 13 to 14 days, scale 0 to 100 (0 no effect, 100 complete control)
Outline: as §2

barnyardgrass [19] = assay: Test C postemergence; assay type: in vivo, Echinochloa crusgalli; settings: 10 days
Outline: as §1

ryegrass, Italian [20] = assay: Test C postemergence; assay type: in vivo, Lolium multiflorum; settings: 10 days
Outline: as §1

wheat [21] = assay: Test C postemergence; assay type: in vivo, Triticum aestivum; settings: 10 days
Outline: as §1

corn [22] = assay: Test C postemergence; assay type: in vivo, Zea mays; settings: 10 days
Outline: as §1

ragweed [23] = assay: Test C preemergence; assay type: in vivo, Ambrosia artemisiifolia; settings: 0 to 100 scale (0 no effect, 100 complete control); for Plant response rating, Ragweed: Preemergence, 500 g ai/ha, visual rating after 10 days; for Ragweed plant response rating: Test C, preemergence, 125 g ai/ha
Outline: as §1

[24] = 125 g ai/ha, postemergence, 0 to 100 scale, 0 no effect, 100 complete control
[25] = Postemergence, 500 g ai/ha, visual 0 to 100 scale (0 no effect, 100 complete control)

In the case of COc1c(F)cc(-n2cnc(C(C)C)n2)cc1C(=O)N1C[C@H](C)Oc2c(Cl)cccc21 [Compound 177], the “Plant response rating, Pigweed, Palmer” value (pigweed, palmer [1]) is reported as 100, the “Pigweed, Palmer plant response rating” value (pigweed, palmer [1]) is reported as 100 and the “Plant response rating, Barnyardgrass” value (barnyardgrass [2]) is reported as 100. For the same compound, the “Barnyardgrass plant response rating” value (barnyardgrass [2]) was 100, the “Plant response rating, Rice (Flood)” value (rice) was 0 and the “Plant response rating, Oat, Wild” value (oat, wild [3]; [24]) was 60. For the same compound, the “Plant response rating, Oat, Wild” value (oat, wild [3]; [25]) was 80, the “Plant response rating, Wheat” value (wheat [4]) was 60 and the “Wheat plant response rating” value (wheat [4]) was 30. The “Plant response rating, Galium” value (galium; [24]) was 90, the “Plant response rating, Galium” value (galium; [25]) was 100 and the “Plant response rating, Pigweed, Palmer” value (pigweed, palmer [5]; [24]) was 90. The “Plant response rating, Pigweed, Palmer” value (pigweed, palmer [5]; [25]) was 100, the “Plant response rating, Foxtail, Green” value (green foxtail [6]) was 100 and the “Foxtail, Green plant response rating” value (green foxtail [6]) was 100. For the same compound, the “Plant response rating, Blackgrass” value (blackgrass [7]) was 60, the “Blackgrass plant response rating” value (blackgrass [7]) was 40 and the “Plant response rating, Soybean” value (soybean [8]) was 90. The “Soybean plant response rating” value (soybean [8]) was 60, the “Plant response rating, Soybean” value (soybean [9]; [24]) was 100 and the “Plant response rating, Soybean” value (soybean [9]; [25]) was 100. For the same compound, the “Plant response rating, Blackgrass” value (blackgrass [10]; [24]) was 90, the “Plant response rating, Blackgrass” value (blackgrass [10]; [25]) was 90 and the “Plant response rating, Barnyardgrass (Flood)” value (barnyardgrass [11]) was 35. The “Plant response rating, Sedge, Umbrella (Flood)” value (sedge, umbrella) was 95, the “Plant response rating, Oat, Wild” value (oat, wild [12]) was 90 and the “Oat, Wild plant response rating” value (oat, wild [12]) was 80. For the same compound, the “Plant response rating, Foxtail, Green” value (green foxtail [13]; [24]) was 90, the “Plant response rating, Foxtail, Green” value (green foxtail [13]; [25]) was 90 and the “Plant response rating, Kochia” value (kochia [14]; [24]) was 90. For the same compound, the “Plant response rating, Kochia” value (kochia [14]; [25]) was 100, the “Plant response rating, Kochia” value (kochia [15]) was 100 and the “Kochia plant response rating” value (kochia [15]; Test C, preemergence, 125 g ai/ha) was 80. For the same compound, the “Plant response rating, Horseweed” value (horseweed; [24]) was 30, the “Plant response rating, Horseweed” value (horseweed; [25]) was 80 and the “Plant response rating, Ragweed” value (ragweed [16]; [24]) was 80. For the same compound, the “Plant response rating, Ragweed” value (ragweed [16]; [25]) was 70, the “Plant response rating, Ryegrass, Italian” value (ryegrass, Italian [17]) was 100 and the “Ryegrass, Italian plant response rating” value (ryegrass, Italian [17]) was 100. For the same compound, the “Plant response rating, Corn” value (corn [18]) was 30, the “Corn plant response rating” value (corn [18]) was 30 and the “Plant response rating, Ducksalad (Flood)” value (ducksalad) was 50. The “Plant response rating, Barnyardgrass” value (barnyardgrass [19]; [24]) was 30, the “Plant response rating, Barnyardgrass” value (barnyardgrass [19]; [25]) was 70 and the “Plant response rating, Ryegrass, Italian” value (ryegrass, Italian [20]; [24]) was 80. The “Plant response rating, Ryegrass, Italian” value (ryegrass, Italian [20]; [25]) was 90, the “Plant response rating, Wheat” value (wheat [21]; [24]) was 30 and the “Plant response rating, Wheat” value (wheat [21]; [25]) was 50. For the same compound, the “Plant response rating, Corn” value (corn [22]; [24]) was 40, the “Plant response rating, Corn” value (corn [22]; [25]) was 60 and the “Plant response rating, Ragweed” value (ragweed [23]) was 90. The “Ragweed plant response rating” value (ragweed [23]) was 90.
With CC(C)c1ncn(-c2ccc([S+]([O-])C(F)(F)F)c(C(=O)N3C[C@H](C)Oc4c(Cl)cccc43)c2)n1 (stereo partly shown) [Compound 191] the “Plant response rating, Pigweed, Palmer” value (pigweed, palmer [1]) was 0, the “Pigweed, Palmer plant response rating” value (pigweed, palmer [1]) was 0 and the “Plant response rating, Barnyardgrass” value (barnyardgrass [2]) was 0. For the same compound, the “Barnyardgrass plant response rating” value (barnyardgrass [2]) was 0, the “Plant response rating, Rice (Flood)” value (rice) was 0 and the “Plant response rating, Oat, Wild” value (oat, wild [3]; [24]) was 0. For the same compound, the “Plant response rating, Oat, Wild” value (oat, wild [3]; [25]) was 0, the “Plant response rating, Wheat” value (wheat [4]) was 0 and the “Wheat plant response rating” value (wheat [4]) was 0. The “Plant response rating, Galium” value (galium; [24]) was 0, the “Plant response rating, Galium” value (galium; [25]) was 50 and the “Plant response rating, Pigweed, Palmer” value (pigweed, palmer [5]; [24]) was 0. The “Plant response rating, Pigweed, Palmer” value (pigweed, palmer [5]; [25]) was 30, the “Plant response rating, Foxtail, Green” value (green foxtail [6]) was 0 and the “Foxtail, Green plant response rating” value (green foxtail [6]) was 0. The “Plant response rating, Blackgrass” value (blackgrass [7]) was 20, the “Blackgrass plant response rating” value (blackgrass [7]) was 0 and the “Plant response rating, Soybean” value (soybean [8]) was 0. The “Soybean plant response rating” value (soybean [8]) was 0, the “Plant response rating, Soybean” value (soybean [9]; [24]) was 40 and the “Plant response rating, Soybean” value (soybean [9]; [25]) was 90. The “Plant response rating, Blackgrass” value (blackgrass [10]; [24]) was 0, the “Plant response rating, Blackgrass” value (blackgrass [10]; [25]) was 0 and the “Plant response rating, Barnyardgrass (Flood)” value (barnyardgrass [11]) was 0. The “Plant response rating, Sedge, Umbrella (Flood)” value (sedge, umbrella) was 0, the “Plant response rating, Oat, Wild” value (oat, wild [12]) was 0 and the “Oat, Wild plant response rating” value (oat, wild [12]) was 0. For the same compound, the “Plant response rating, Foxtail, Green” value (green foxtail [13]; [24]) was 0, the “Plant response rating, Foxtail, Green” value (green foxtail [13]; [25]) was 0 and the “Plant response rating, Kochia” value (kochia [14]; [24]) was 20. For the same compound, the “Plant response rating, Kochia” value (kochia [14]; [25]) was 20, the “Plant response rating, Kochia” value (kochia [15]) was 0 and the “Plant response rating, Horseweed” value (horseweed; [24]) was 0. For the same compound, the “Plant response rating, Horseweed” value (horseweed; [25]) was 0, the “Plant response rating, Ragweed” value (ragweed [16]; [24]) was 0 and the “Plant response rating, Ragweed” value (ragweed [16]; [25]) was 0. For the same compound, the “Plant response rating, Ryegrass, Italian” value (ryegrass, Italian [17]) was 20, the “Ryegrass, Italian plant response rating” value (ryegrass, Italian [17]) was 0 and the “Plant response rating, Corn” value (corn [18]) was 0. The “Corn plant response rating” value (corn [18]) was 0, the “Plant response rating, Ducksalad (Flood)” value (ducksalad) was 0 and the “Plant response rating, Barnyardgrass” value (barnyardgrass [19]; [24]) was 10. The “Plant response rating, Barnyardgrass” value (barnyardgrass [19]; [25]) was 10, the “Plant response rating, Ryegrass, Italian” value (ryegrass, Italian [20]; [24]) was 0 and the “Plant response rating, Ryegrass, Italian” value (ryegrass, Italian [20]; [25]) was 0. For the same compound, the “Plant response rating, Wheat” value (wheat [21]; [24]) was 10, the “Plant response rating, Wheat” value (wheat [21]; [25]) was 10 and the “Plant response rating, Corn” value (corn [22]; [24]) was 0. For the same compound, the “Plant response rating, Corn” value (corn [22]; [25]) was 0, the “Plant response rating, Ragweed” value (ragweed [23]) was 0 and the “Ragweed plant response rating” value (ragweed [23]) was 0.
